Results from the supplement of paper PMC11616607.

Tests used:
Assay in all cases: drug sensitivity score (DSS) from 5-point dose-response viability curve (DSS (area-under-curve based score)); higher = more sensitive (stronger growth inhibition or killing); extreme values may be limits of the assay
Settings in all cases: exposure time: 72 h; concentration range: 5 concentrations over 10,000-fold range
[1] = test system: CAOV3
In short: (§1)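 For the drug sensitivity score, obtained per cell line and drug in Breeze software, larger values mean greater sensitivity. No response corresponds to a score of zero. Ovarian cancer and normal ovarian cells were seeded at 1,500 per well into 384-well plates already holding acoustically dispensed drugs (Echo 550, DMSO or water, five concentrations over a 10,000-fold range) and incubated 3 days at 37°C, 5% CO2. CellTiter-Glo luminescence on a PHERAstar FS gave the viability readout.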

[2] = test system: COV362
In short: as §1

[3] = test system: OV90
In short: as §1

[4] = test system: OVCAR4
In short: as §1

[5] = test system: COV318
In short: as §1

[6] = test system: OVCAR8
In short: as §1

[7] = test system: Kuramochi
In short: as §1

[8] = test system: JHOS2
In short: as §1

[9] = test system: HOSE2C
In short: as §1

[10] = test system: HOSE1C
In short: as §1

[11] = test system: OVCAR5
In short: as §1

[12] = test system: Ovsaho
In short: as §1

Row | Structure (SMILES) | drug sensitivity score [1] | drug sensitivity score [2] | drug sensitivity score [3] | drug sensitivity score [4] | drug sensitivity score [5] | drug sensitivity score [6] | drug sensitivity score [7] | drug sensitivity score [8] | drug sensitivity score [9] | drug sensitivity score [10] | drug sensitivity score [11] | drug sensitivity score [12]
1 | C[C@H]1CNCCCN1S(=O)(=O)c1cccc2cncc(F)c12 [Ripasudil] | 0 | 0 | 0 | 0 | 0 | 0 | 0 | 0 | 0.6 | 2 | 0 | 0
2 | CC1=C(/C=C/C(C)=C/C=C/C(C)=C/C(=O)O)C(C)(C)CCC1 [Tretinoin] | 0 | 0 | 0 | 0 | 0 | 0 | 0 | 0.5 | 5.7 | 0 | 0 | 0
3 | C[C@H]1CN(C2COC2)CCN1c1ccc(Nc2cc(-c3ccnc(N4CCn5c(cc6c5CC(C)(C)C6)C4=O)c3CO)cn(C)c2=O)nc1 [GDC-0853] | 0 | 0 | 0 | 0 | 0 | 0 | 0 | 0 | 0 | 0 | 0 | 0
4 | CCOCc1nc2c(N)nc3ccccc3c2n1CC(C)(C)O [Resiquimod] | 0 | 0 | 0 | 0.3 | 0 | 0 | 1.2 | 0.6 | 0 | 0 | 0.3 | 0.3
5 | Cc1cc(Nc2cc(N3CCN(C)CC3)nc(Sc3ccc(NC(=O)C4CC4)cc3)n2)n[nH]1 [Tozasertib] | 25.2 | 1.6 | 6.4 | 5.8 | 1.3 | 6.5 | 3.6 | 2.1 | 6.8 | 5.2 | 6.1 | 2.3
6 | CCOC(=O)CCNc1cc(N2CCc3ccccc3CC2)nc(-c2ccccn2)n1 [GSK-J4] | 1.6 | 0 | 4.6 | 2.9 | 6.9 | 1.5 | 9 | 0 | 0.8 | 2.5 | 0.6 | 1.9
7 | CC(=O)O[C@]1(C(C)=O)CC[C@H]2[C@@H]3C=C(C)C4=CC(=O)CC[C@]4(C)[C@H]3CC[C@@]21C [Megestrol acetate] | 0 | 0 | 0 | 0 | 0 | 0.4 | 0 | 0 | 0 | 0 | 0 | 0
8 | Cc1cc(Nc2ncc(Cl)c(Nc3ccccc3S(=O)(=O)C(C)C)n2)c(OC(C)C)cc1C1CCNCC1 [Ceritinib] | 2.7 | 0 | 4.9 | 1.5 | 0.8 | 0 | 2.1 | 0 | 2.2 | 0.7 | 3.8 | 3.3
9 | CC[C@@H]1[C@H](F)C(=O)N[C@@H]1COc1nccc2cc(C(N)=O)c(OC)cc12 | 0.9 | 0 | 0.6 | 0.4 | 0 | 0.7 | 1.8 | 1.3 | 0 | 0 | 0.6 | 2.3
10 | CC(C)n1nc(-c2ccc3oc(N)nc3c2)c2c(N)ncnc21 [Sapanisertib] | 8.4 | 3.2 | 15.2 | 10.7 | 8.2 | 9.8 | 8.9 | 7.4 | 10.9 | 13 | 12.4 | 14.6
11 | CS(=O)(=O)N1CCN(Cc2cc3nc(-c4cccc5[nH]ncc45)nc(N4CCOCC4)c3s2)CC1 [Pictilisib] | 9.8 | 5.9 | 6.2 | 5.3 | 5.3 | 8.3 | 10.6 | 3.8 | 8.2 | 6.8 | 12.1 | 9.5
12 | O=S(=O)(c1cccc2c(O)nccc12)N1CCCNCC1 [Hydroxyfasudil] | 0 | 0 | 0 | 0 | 0.1 | 0 | 0 | 0.4 | 0 | 0 | 0 | 0
13 | CC[C@@H]1C(=O)N(C)c2cnc(Nc3ccc(C(=O)N[C@H]4CC[C@H](N5CCN(CC6CC6)CC5)CC4)cc3OC)nc2N1C(C)C [Volasertib] | 13.1 | 3.2 | 11.5 | 4.4 | 4.1 | 15.5 | 7.3 | 7.1 | 6.3 | 9.7 | 12.2 | 10.4
14 | Cc1cc(Nc2ncnc3ccc(NC4=NC(C)(C)CO4)cc23)ccc1Oc1ccn2ncnc2c1 [Tucatinib] | 0 | 0 | 0 | 0 | 0 | 0 | 0 | 0 | 0 | 0 | 0 | 0
15 | CCCCCOC(=O)Nc1nc(=O)n([C@@H]2O[C@H](C)[C@@H](O)[C@H]2O)cc1F [Capecitabine] | 0.2 | 0 | 0 | 0 | 0 | 0 | 0 | 0 | 0 | 0.3 | 0.3 | 0
